According to US20120189673A1, “POLYPEPTIDES AND USES THEREOF” (priority 2009, published 2012):

How the values were obtained:
[1] = test system: extrinsic pathway of coagulation in normal human plasma; assay: Clotting assay: prothrombin time (PT); assay type: biochemical
Protocol: (§1) Clotting assays. All clotting times were measured using an Amelung coagulometer. Activated partial thromboplastin time (aPTT) was measured by incubating the peptides diluted in sterile water at the indicated concentrations, with 100 μL citrated human plasma for 1 minute followed by the addition of 100 μL aPTT reagent (aPTT Automate, Diagnostica Stago) for 60 seconds at 37° C. Clotting was initiated by the addition of 100 μL of a 25-mM CaCl2 solution. In the prothombrin time assay (PT), clotting was initiated by the addition of 100 μL Thrombomax with calcium (PT reagent; Sigma-Aldrich). For measuring the thrombin clotting time (TCT), clotting was initiated by the addition of 100 μL Accuclot thrombin time reagent (TCT reagent; Sigma-Aldrich).

[2] = test system: thrombin induced fibrin network formation in normal human plasma; assay: Clotting assay: thrombin clotting time (TCT); assay type: biochemical
Protocol: as §1

[3] = Properties stated for FFF21 (FIG. 56)
[4] = test system: intrinsic pathway of coagulation in normal human plasma; assay: Clotting assay: activated partial thromboplastin time (aPTT); assay type: biochemical
Protocol: as §1

[5] = test system: E. coli LPS induced sepsis in wildtype C57BL/6 mice; assay: LPS induced sepsis in wildtype mice, treatment with GHH25; assay type: in vivo, mouse
Text: Animal experiments. The original knockout mice 129/B6-HRG^tm1wja1 were crossed with C57BL/6 mice (Taconic) for 14 generations to obtain uniform genetic background. These HRG-deficient mouse strain was called B6-HRG^tm1wja1 following ILAR (Institute of Laboratory Animal Resources) rules. Wildtype C57BL/6 control mice and C57BL/6 Hrg−/− mice (8-12 weeks, 27+/−4 g) were bred in the animal facility at Lund University. C57BL/6 Hrg^−/−, lacks the translation start point of exon 1 of the Hrg gene. Animals were housed under standard conditions of light and temperature and had free access to standard laboratory chow and water. In order to induce sepsis, 18 µg/g Escherichia coli 0111:B4 LPS were injected intraperitoneally into C57BL/6 or C57BL/6 Hrg−/− mice, divided into weight and sex matched groups. Survival and status was followed during seven days.
For treatment with GHH25 peptide, 1 mg of the peptide (diluted in 10 mM Tris, pH 7.4) or buffer only was injected intraperitoneal 30 minutes after LPS-challenge and survival and status was then followed.
Animal experiments. The original knockout mice 129/B6-HRG^tm1wja1 were crossed with C57BL/6 mice (Taconic) for 14 generations to obtain uniform genetic background. These HRG-deficient mouse strain was called B6-HRG^tm1wja1 following ILAR (Institute of Laboratory Animal Resources) rules. […]

[6] = test system: Human monocyte-derived macrophages; assay: TNF-α release from human macrophages; assay type: cell-based; conditions: 10 ng/ml LPS with or without HRG (2 μM); GHH25 10 and 100 μM; 24 hours
Protocol: TNF-α release from human macrophages. Human monocyte-derived macrophages (hMDMs) were obtained from peripheral blood mononuclear cells (PBMCs) obtained from the blood of healthy donors using a Lymphoprep (Axis-Shield PoC AS) density gradient. PBMCs were seeded at concentrations of 3×10^6 cells/well into 24-well plates and cultured in RPMI1640 medium supplemented with 10% heat-inactivated autologous human plasma, 2 mM L-glutamine, and 50 μl/ml Antibiotic-Antimycotic (Gibco) in a humidified atmosphere of 5% CO2. After 24 h, non-adherent cells were removed and adherent monocytes were differentiated to macrophages for 10 days, with fresh medium changes every second day. […] After stimulation the supernatant was aspirated and TNF-α was measured using the TNF-α human ELISA kit (Invitrogen).

RAW macrophages = assay: Nitric oxide induction in RAW macrophages by LPS with or without HRG; assay type: cell-based, murine; conditions: 24 hours
Protocol: (§2) Nitric oxide induction in RAW macrophages. Confluent cells were harvested and transferred to 96-wells plate (3.5×10^5/well). After adhesion cells were washed with phenol red-free DMEM (Gibco). E. Coli LPS (100 ng/ml), LL-37 (2 or 10 μM) or HRG (2 or 10 μM) was preincubated at 37° C. for 30 minutes and then transferred to the cells. For inhibition of NO induction, 5 µg/ml anti mouse TLR4 antibody, 10 or 100 µM GHH25 or 100 µg/ml heparin were used. The cells were stimulated for 24 hours and nitric oxide was determined using the Griess chemical method.
as §2, with “([…]).” for “(3.5×10^5/well).”, “For inhibition of NO induction, 5 µg/ml anti mouse TLR4 antibody, 10 or 100 µM GHH25 or 100 µg/ml heparin were used.” left out

[7] = LPS-binding slot-blot assay with iodinated LPS; set-up: species or system Escherichia coli; conditions: 2 and 5 μg HRG on nitrocellulose; pH 7.4 or pH 5.5, with or without 0.15M NaCl
Protocol: Radioiodination of heparin and LPS. The radioiodination of heparin (from porcine intestinal mucosa, Sigma-Aldrich) was performed as described previously. The iodination of LPS was performed as described by Ulevitch. 1 mg Escherichia coli 0111:B4 LPS was incubated in 50 mM p-OH benzimidate in borate buffer, pH 8, over night at 4° C., and then dialyzed against PBS, pH 7.4. LPS was then radiolabelled with ^125I using the chloramine T method, and unlabelled ^125I was then removed by dialysis.
Heparin and LPS-binding assay. 1, 2 and 5 μg of the synthetic peptides in 100 μl PBS pH 7.4 were applied onto nitrocellulose membranes (Hybond-C, Amersham Biosciences) using a slot-blot apparatus. Membranes were blocked for 1 h at room temperature with 2% bovine serum albumin in PBS pH 7.4 and then incubated with radiolabelled LPS (˜40 μg·mL^−1, 0.13×10^6 cpm·μg^−1) or radiolabelled heparin (˜10 μg·mL^−1, 0.4×10^6 cpm·μg^−1) for 1 h at room temperature in PBS, pH 7.4. […] A Bas 2000 radio-imaging system (Fuji Film, Tokyo, Japan) was used to visualize radioactivity.
Slot-blot assay. […] After LPS binding, membranes were washed 3 times, 10 min each time in the above buffers and visualized for radioactivity on Bas 2000 radioimaging system (Fuji, Japan). […]
Heparin and LPS-binding assay. […] A Bas 2000 radio-imaging system (Fuji Film, Tokyo, Japan) was used to visualize radioactivity.

Protocol for erythrocytes: Hemolysis assay. EDTA-blood was centrifuged at 800 g for 10 min, whereafter plasma and buffy coat were removed. The erythrocytes were washed three times and resuspended in PBS, pH 7.4 to get a 5% suspension. The cells were then incubated with end-over-end rotation for 60 min at 37° C. in the presence of peptides (60 μM). 2% Triton X-100 (Sigma-Aldrich) served as positive control. The samples were then centrifuged at 800 g for 10 min and the supernatant was transferred to a 96 well microtiter plate. The absorbance of hemoglobin release was measured at λ 540 nm and is in the plot expressed as % of TritonX-100 induced hemolysis.

Q: With `CC[C@H](C)[C@H](NC(=O)[C@H](CCCCN)NC(=O)[C@H](CCC(=O)O)NC(=O)[C@H](CCCCN)NC(=O)[C@H](CO)NC(=O)[C@H](CCCCN)NC(=O)[C@H](CCCNC(=N)N)NC(=O)[C@H](Cc1ccccc1)NC(=O)[C@H](Cc1ccccc1)NC(=O)[C@H](CC(=O)O)NC(=O)CNC(=O)[C@H](CC(C)C)NC(=O)[C@@H](N)CC(C)C)C(=O)NCC(=O)N[C@@H](CCCCN)C(=O)N[C@@H](CCC(=O)O)C(=O)N[C@@H](Cc1ccccc1)C(=O)N[C@@H](CCCCN)C(=O)N[C@@H](CCCNC(=N)N)C(=O)N[C@H](C(=O)N[C@H](C(=O)N[C@@H](CCC(N)=O)C(=O)N[C@@H](CCCNC(=N)N)C(=O)N[C@H](C(=O)N[C@@H](CCCCN)C(=O)N[C@@H](CC(=O)O)C(=O)N[C@@H](Cc1ccccc1)C(=O)N[C@@H](CC(C)C)C(=O)N[C@@H](CCCNC(=N)N)C(=O)N[C@@H](CC(N)=O)C(=O)N[C@@H](CC(C)C)C(=O)N[C@H](C(=O)N1CCC[C@H]1C(=O)N[C@@H](CCCNC(=N)N)C(=O)N[C@H](C(=O)N[C@@H](CCC(=O)O)C(=O)N[C@@H](CO)C(=O)O)[C@@H](C)O)C(C)C)[C@@H](C)CC)C(C)C)[C@@H](C)CC` [LL-37] as the molecule, how does the “doses at which erythrocytes were readily permeabilized” value (erythrocytes) read?
A: > 6 µM

Q: With “FFFAKLNCRLYRKANKSSKLV [FFF21, Antithrombin III-derived peptide, aa 153-173 of antithrombin III, P01008]” as the molecule, how does the “prothrombin time (PT)” value [1] read?
A: not significantly affected

Q: What about the “thrombin clotting time (TCT)” value [2] of the same molecule?
A: not significantly affected

Q: What about the “antibacterial and antiinflammatory properties” value [3] of the same molecule?
A: antibacterial and antiinflammatory properties

Q: And the “activated partial thromboplastin time (aPTT)” value [4]?
A: impairs the intrinsic pathway of coagulation

Q: Which results are given for GHHPHGHHPHGHHPHGHHPHGHHPH [GHH25]?
A: survival ([5]; 1 mg GHH25 i.p. 30 minutes after E. coli LPS, followed seven days, p=0.03): significantly increased survival; health status ([5]; LPS induced sepsis, treatment with GHH25): Improved health status; TNF-α (HRG and LPS induced responses) [6]: inhibits HRG and LPS induced responses; LPS and HRG mediated NO release (RAW macrophages; 100 ng/ml LPS with or without HRG (2 μM), GHH25 10 and 100 μM): significantly decreased

B1: HRG: 67 kDa plasma protein histidine-rich glycoprotein, purified from human serum (protein, UniProt P04196 19-525, looked up)
Histidine-rich glycoprotein: VSPTDCSAVEPEAEKALDLINKRRRDGYLFQLLRIADAHLDRVENTTVYYLVLDVQESDCSVLSRKYWNDCEPPDSRRPSEIVIGQCKVIATRHSHESQDLRVIDFNCTTSSVSSALANTKDSPVLIDFFEDTERYRKQANKALEKYKEENDDFASFRVDRIERVARVRGGEGTGYFVDFSVRNCPRHHFPRHPNVFGFCRADLFYDVEALDLESPKNLVINCEVFDPQEHENINGVPPHLGHPFHWGGHERSSTTKPPFKPHGSRDHHHPHKPHEHGPPPPPDERDHSHGPPLPQGPPPLLPMSCSSCQHATFGTNGAQRHSHNNNSSDLHPHKHHSHEQHPHGHHPHAHHPHEHDTHRQHPHGHHPHGHHPHGHHPHGHHPHGHHPHCHDFQDYGPCDPPPHNQGHCCHGHGPPPGHLRRRGPGKGPRPFHCRQIGSVYRLPPLRKGEVLPLPEANFPSFPLPHHKHPLKPDNQPFPQSVSESCPGKFKSGFPQVSMFFTHTFPK
Q: What does the source list for B1?
A: binding of iodinated LPS [7]: LPS-binding; LPS mediated NO release (RAW macrophages; 100 ng/ml LPS, HRG 2 and 10 μM, n=6, p=0.001): significantly increased
